{"source": "patent US6592821B1", "about": "“Focusing of microparticles in microfluidic systems” (Caliper Technologies Corp., priority 1999, dated 2003)", "format_in_all_cases": "cell-based", "key": {"HL60 cells": {"system": "HL60 cells", "assay": "Annexin-V assay for apoptosis in microfluidic device", "conditions": "HL60 cells treated for four hours; FIG. 12, untreated control FIG. 13"}, "U937 cells [1]": {"system": "U937 cells", "assay": "Annexin-V assay for apoptosis in microfluidic device", "conditions": "U937 cells treated to induce apoptosis; FIG. 7, untreated control FIG. 6", "method": "In an Annexin-V assay, change in the outer membrane of apoptotic cells is detected. A membrane component, phosphatidylserine (PS) is translocated to the outer layer. Annexin-V binds to PS and is conjugated to biotin to allow secondary reactions to fluorescently labeled Streptavidin for detection. U937 cells were treated with Campthotecin to induce apoptosis. The cells were harvested and washed in phosphate buffered saline (PBS). Cells were incubated with Annexin-V-Biotin (Boehringer Mannheim) in HEPES buffer, and then incubated with 5 μg streptavidin-Cy5 (Amersham) and […] of Calcein-AM dye in HEPES buffer. The HEPES buffer solution contained 10 mM HEPES, pH 7.4; 140 mM NaCl; and a 5 mM CaCl2. The cells were washed and resuspended in HEPES buffer with 8.5% sucrose and loaded in a microfluidic device for analysis. Fluorescence was detected using excitation at 488 nm and 635 nm, and emission was read at 525 nm and 682 nm."}, "U937 cells [2]": {"system": "U937 cells", "assay": "TUNEL assay for apoptosis in microfluidic device", "conditions": "U937 cells treated to induce apoptosis; FIG. 5, untreated control FIG. 4", "method": "A TUNEL assay (TdT (Terminal deoxynucleotidyl transferase)-mediated dUTP Nick End Labeling) was used to measure cellular apoptosis in accordance with the above-described methods and systems. In a TUNEL Assay, damaged DNA is labeled with fluorescinated nucleotides. Terminal deoxynucleotidyl transferase (TdT) binds to exposed 3′ ends of DNA fragments generated in response to apoptotic signals and catalyzes the addition of fluorescein-labeled deoxynucleotides. U937 cells were treated with Campthotecin to induce apoptosis. The cells were then harvested and fixed with 4% formaldehyde and stored in 80% ethanol at +4° C. until labeling was performed.\nThe cells were rehydrated in TBS buffer. They were then treated with 20 μg/ml of proteinase K for 5 minutes and resuspended in equilibration buffer. The cells were incubated in a working TdT labeling reaction mixture from Oncogene Research Products containing TdtT enzyme and FragEL TdT labeling reaction mix. […]\nAfter washing the cells in TBS, they were resuspended in Hanks' Balanced Salt Solution with 10% OPTIPREP at 5×10^6/ml and loaded in a microfluidic device having the channel geometry shown in FIG. 1A, for analysis. Fluorescence was detected using 488 nm excitation, while emission was read at 525 nm and 680 nm."}, "HL-60 cells": {"system": "HL-60 cells", "assay": "TUNEL assay for apoptosis in microfluidic device", "conditions": "HL-60 cells treated for 6 hours; FIG. 8, untreated control FIG. 9"}}, "data": [{"molecule": "CC[C@@]1(O)C(=O)OCc2c1cc1n(c2=O)Cc2cc3ccccc3nc2-1", "note": "[Campthotecin]", "values": [{"measurement": "apoptotic cells (Annexin-V-Cy5 labeling vs Calcein live cell count)", "setting": "HL60 cells", "value": "almost all cells are apoptotic"}, {"measurement": "apoptotic cells (Annexin-V-Cy5 peaks vs Calcein live cell count)", "setting": "U937 cells [1]", "value": "much greater number of peaks representing apoptotic cells"}, {"measurement": "apoptotic cells (fluorescein end labeled nucleic acid peaks vs SYTO-62 cell peaks)", "setting": "U937 cells [2]", "value": "corresponding peaks are seen on both the lower and upper lines, indicating the presence of apoptotic cells"}, {"measurement": "apoptotic cells labeled at DNA damage points vs total cell count", "setting": "HL-60 cells", "value": "almost all cells had sustained apoptotic DNA damage"}]}]}
